Assay results published in patent US20080207650A1, “Chemical Compounds 636” (priority 2007, published 2008).

Target: recombinant Human Phosphodiesterase B2 (PDE4B2) (Homo sapiens, UniProt Q07343)
Test: Human Phosphodiesterase B2 Radiometric Assay
Format: biochemical
Conditions: SPA assay, 0.1 μg/mL recombinant PDE4B2, 8 nM [3H]cyclic AMP, preincubated 30 min at 30 C, reaction 20 minutes; read-out: PDE4B2 pIC50 (converted)
Protocol: Human Phosphodiesterase B2 Radiometric Assay
The assay uses recombinant Human Phosphodiesterase B2 (PDE4B2) produced in house (PrAZL0163), stored at −20° C. This assay is based on the observation that 5′AMP, the product of the reaction catalysed by PDE4, binds preferentially to yttrium silicate SPA beads (Amersham Biosciences, UK) compared to the substrate, cAMP. Compounds at the appropriate concentration were preincubated at 30 C for 30 min with an assay buffer containing 50 mM HEPES (pH 7.5), 8.3 mM MgCl2, 1.7 mM EGTA, 0.01% (w/v) Brij® 35 and 0.1 μg/mL recombinant PDE4B2. The reaction was started by the addition of [3H]cyclic AMP to give a final concentration of 8 nM, and was stopped 20 minutes after the addition of the substrate by the addition of yttrium silicate SPA beads containing 18 mM Zn SO4. Bound [3H]cyclic AMP was measured using a Topcount NXT (Packard Bioscience, UK). IC50 values (presented in Table I) were determined using Xlfit3 curve fitting, using model 205.

Chain of recombinant Human Phosphodiesterase B2 (PDE4B2) (Q07343 1-564 isoform Q07343-2): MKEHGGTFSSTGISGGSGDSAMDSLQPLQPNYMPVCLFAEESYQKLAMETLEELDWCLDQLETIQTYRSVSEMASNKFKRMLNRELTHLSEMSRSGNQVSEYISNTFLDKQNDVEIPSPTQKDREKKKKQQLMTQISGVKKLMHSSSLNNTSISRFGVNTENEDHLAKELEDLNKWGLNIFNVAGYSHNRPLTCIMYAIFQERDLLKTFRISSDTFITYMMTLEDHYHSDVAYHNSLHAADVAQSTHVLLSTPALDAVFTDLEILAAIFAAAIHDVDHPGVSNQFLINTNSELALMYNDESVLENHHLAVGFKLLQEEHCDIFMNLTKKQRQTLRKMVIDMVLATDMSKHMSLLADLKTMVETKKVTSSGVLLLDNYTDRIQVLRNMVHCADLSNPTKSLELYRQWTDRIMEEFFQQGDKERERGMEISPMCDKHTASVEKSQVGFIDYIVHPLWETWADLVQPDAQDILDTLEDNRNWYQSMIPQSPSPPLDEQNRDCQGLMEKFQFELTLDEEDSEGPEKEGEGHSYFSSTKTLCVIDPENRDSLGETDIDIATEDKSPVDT

Row | Structure (SMILES) | IC50
1 | O=C(CN1CCN(Cc2ccccc2)CC1)NC1CCC(n2c(=O)c3cc(F)cnc3n(C3CCSCC3)c2=O)CC1 (stereo not shown) [Example 10, 2-(4-benzylpiperazin-1-yl)-N-[4-(9-fluoro-2,4-dioxo-5-tetrahydrothiopyran-4-yl-3,5,7-triazabicyclo[4.4.0]deca-6,8,10-trien-3-yl)cyclohexyl]acetamide] | 0.0794 nM
2 | CN1CCN(Cc2ccc(C(=O)NC3CCC(n4c(=O)c5cc(F)cnc5n(C5CCSCC5)c4=O)CC3)cc2)CC1 (stereo not shown) [Example 6, N-[4-(9-fluoro-2,4-dioxo-5-tetrahydrothiopyran-4-yl-3,5,7-triazabicyclo[4.4.0]deca-6,8,10-trien-3-yl)cyclohexyl]-4-[(4-methylpiperazin-1-yl)methyl]benzamide] | 3.16 nM
3 | NCC1CCc2nc(C(=O)N[C@H]3CC[C@@H](n4c(=O)c5cc(F)cnc5n(C5CCSCC5)c4=O)CC3)cn2C1 (stereo partly drawn) [Example 3, 6-(aminomethyl)-N-{cis-4-[6-fluoro-2,4-dioxo-1-(tetrahydro-2H-thiopyran-4-yl)-1,4-dihydropyrido[2,3-d]pyrimidin-3(2H)-yl]cyclohexyl}-5,6,7,8-tetrahydroimidazo[1,2-a]pyridine-2-carboxamide] | 6.31 nM
4 | O=C(CN1CCN(C(=O)Cc2ccccc2)CC1)NC1CCC(n2c(=O)c3cc(F)cnc3n(C3CCSCC3)c2=O)CC1 (stereo not shown) [Example 24, N-[4-(9-fluoro-2,4-dioxo-5-tetrahydrothiopyran-4-yl-3,5,7-triazabicyclo[4.4.0]deca-6,8,10-trien-3-yl)cyclohexyl]-2-[4-(2-phenylacetyl)piperazin-1-yl]acetamide] | 2 nM
